This is an account of results in patent US5141627A, “Chelators whose affinity for calcium ion is increased by illumination” (The Regents of the University of California, priority 1989, dated 1992).

“Also recorded” adds a separate entry of the source. Like-named read-outs stand apart in the source and are kept apart here. Bounds are passed on as bounds.

The nature of data set [1]: Absorbance spectra of free and Ca2+-bound chelators. It counts as physicochemical. As to the method:
(§1) The titration was done at 22° C. with 10 mL of 100 mM KCl, 10 mM K-MOPS, 10 mM K2 H.HEEDTA, and 14 […] diazo-2 as starting materials, adjusting the pH to 7.24, recording the spectrum, and then discarding 1.0 mL of this solution and replacing with 1.0 mL of 100 mM KCl, 10 mM K.MOPS, 10 mM KCa.HEEDTA, 14 μM diazo-2, readjusting the pH to 7.24, and recording the spectra, which was then in 9 mM K2H.HEEDTA. Subsequent iterations to reach n mM KCa.HEEDTA, (10-n) mM HEEDTA, n=2-10, were done by discarding 10.0/(11-n) mL and replacing with equal volumes of the 10mM KCa.HEEDTA, 14 μM diazo-2 stock. After n=10 had been reached to give free Ca^2+ between 10^-5 and 10^-4 M, addition of 1 mM CaCl2 had no further effect on the spectrum. For clarity only six spectra are including in the figure, n=0, 2, 4, 6, 8, and 10. Each spectrum is labeled with the calculated free [Ca^2+ ] imposed by the HEEDTA buffer, assuming a log effective stability constant of 5.55 at pH 7.24.
(§2) The phenylacetate was produced by irradiating a 30 μM solution of diazo-2 in 100 mM KCl, 10 mM Tris.HCl, 10 mM K2 H.HEEDTA, pH 8.40, with Spectroline lamp at 365 nm to completion. The titration was then performed as in A but the pH was maintained at 8.40, at which the calculated log effective stability is constant for HEEDTA was 6.60.
Proton magnetic resonance spectra (^1 H NMR) were recorded on a Varian EM-390 90-MHz spectrometer in CDCl3 unless otherwise noted, and the chemical shifts are given in δ values relative to tetramethylsilane. Ultraviolet (UV) absorbance spectra were recorded on a Cary 210 or a Perkin-Elmer Lambda Array 3840 spectrophotometer at 20°±2° C. Melting points are in Centigrade and are uncorrected. Elemental analyses were performed by the Microanalytical Laboratory in the Department of Chemistry, University of California, Berkeley, Calif.

A short description of data set [2]: Ca2+ affinity by UV spectra during titration of EGTA or HEEDTA buffers. It counts as binding. The method, then: as §1, §2
Ca^2+ -binding constants for chelators before and after photolysis were determined by monitoring UV spectra during titration of EGTA or HEEDTA buffers to varying free Ca^2+ levels.
Either the ratio of, for example, [Ca.EGTA] to free [EGTA] was adjusted at a constant pH, or the pH was varied while [Ca.EGTA]=[EGTA]. These two approaches gave equivalent answers for pH>7 whenever directly tested, because of the pH insensitivity of BAPTA-like ligands (see FIG. 1 legend for more details). The apparent dissociation constants of Ca.EGTA and Ca.HEEDTA were calculated as described by R. Y. Tsien (1980); see also R. Y. Tsien, et al. (1986), S. R. Adams, et al. (1980), Grynkiewicz, et al., (1985), and Jackson, et al. (1987).

For data set [3], the system named is REF52 fibroblast cell. Briefly: Intracellular free Ca2+ in REF52 fibroblasts on vasopressin stimulation and UV photolysis (fluo-3). It counts as cell-based, Fisher rat. The note with it: for effect of UV photolysis of intracellular chelator on [Ca2+]i (in words): 1 s UV after 50 nM [arg8]-vasopressin. From the text:
The tetraacetoxymethyl esters of diazo-2 and diazo-3 were synthesized. The acetoxymethyl (AM) groups mask the negative charges on the carboxylate functions, so the AM ester of diazo-2 and diazo-3 can easily diffuse across the cell membrane, which is largely impermeable to ions. Once inside the cell, non-specific esterases in the cell hydrolytically cleave the AM esters and restore diazo-2 and diazo-3 to their tetracarboxylate forms, which being polyanions, are trapped within the cell. […] Prior to the start of data acquisition (t=0), the REF52 fibroblast cell was loaded with diazo-2 and fluo-3. […] Its fluorescence quantum yield is enhanced about 40-fold by Ca^2+ binding, which occurs with a Kd of 400 nM.
Prior to the start of data acquisition, the REF52 fibroblast cell was loaded with fluo-3 and diazo-2 by incubation for 30 min at 25° C. DME medium containing 1 μM diazo-2/AM and 10 μM fluo-3/AM. Acquisition of fluo-3 fluorescence intensity images was begun at time 0. The fluorescence intensity data was converted to intracellular Ca^2+ concentrations using a calibration procedure previously described. The event markers correspond to 1) stimulating the cell with 50 nM [arg^8 ]-vasopressin,and 2) flashing the cell for 1 s with UV light.
The experimental conditions were the same as in (A) except that the cell wa loaded with fluo-3 and diazo-3 (instead of diazo-2) by incubation for 90 min at 25° C. in DME medium containing 10 μm fluo-3/AM and […] diazo-3/AM. The event markers correspond to 1) stimulating the cell with 50 nM [arg^8 ]-vasopressin, and 2) flashing the cell for 1 s of UV light.
For preliminary biological tests, Fisher rat embryo fibroblast of the REF52 cell line were cultured as described by J. P. Y. Kao, et al. (1989).
For testing diazo-2, REF52 cells were incubated for 30 min at 25° C. in Dulbecco's modified Eagle's medium, buffered at pH 7.4 with 20 mM HEPES and containing 1 μM diazo-2/AM and 10 μM fluo-3/AM. For control experiments using diazo-3, the cells were incubated for 90 min at 25° C. in DMEM, buffered to pH 7.4 with 20 mM HEPES and containing 1 μM diazo-3/AM and […] fluo-3/AM. After loading, the cells were gently washed, transferred into Hanks' Balanced Salt Solution containing 0.2 mM sulfinpyrazone to inhibit non-specific organic anion transport (see Tsien, 1989), and mounted on a 25° C. microscope stage for experimentation.
Flash photolysis of trapped cellular diazo-2 and the concomitant monitoring of intracellular free Ca^2+ concentration with fluo-3, a fluorescent Ca^2+ indicator, were performed using methodology and instrumentation described in A. Minta, et al (1989) and J. P. Y. Kao, et al. (1989). Briefly, output form a Xe arc lamp was passed through a monochromator to yield the 490 nm light used to probe the fluo-3 trapped intracellularly. The fluo-3 fluorescence images of cells were recorded using a SIT TV camera. Images were stored on a high-resolution monochrome laser disc recorder (Panasonic TQ-2028) for delayed processing. Photolyses were performed by briefly moving a chopper mirror to send broad-band UV from an XBO 75 W xenon arc lamp and UG-2 filter into the microscope instead of 490 nm fluo-3 excitation. The microscope objective (Nikon UV-CF, 40X) was chosen for its high UV transmission and numerical aperture (1.3). […] The same computer was used to analyze the fluorescence images acquired during the experiment.

Regarding `COc1cc(C(=O)C=[N+]=[N-])ccc1N(CC(=O)O)CC(=O)O` [diazo-3, 2-methoxy-4-(diazoacetyl)aniline-N, N-diacetic acid], the “εmax, free” value in data set [1] (free (zero Ca2+), at λmax) is 22.8 10^-3, M^-1 cm^-1. In addition, in data set [1] (free (zero Ca2+), dominant peak at longest wavelength), the “λmax, free” value turned out to be 374 nm. For the same compound, in data set [2] (negligible affinity, pre- and post-photolysis, read-out: Kd (Ca2+)), the Kd – broadly, the free concentration of one partner at which half of the binding sites on the other are occupied at equilibrium, for simple one-to-one binding – is above 1000 µM. The “effect of UV photolysis of intracellular chelator on [Ca2+]i (in words)” value in data set [3] is “did not have any effect on the intracellular Ca^2+ concentration; also recorded: no detectable effect on Ca^2+ hemeostasis”.
Consider `Cc1ccc(N(CC(=O)O)CC(=O)O)c(OCCOc2cc(C(=O)C=[N+]=[N-])ccc2N(CC(=O)O)CC(=O)O)c1` [diazo-2, 1-(2-bis(carboxymethyl)amino-5-methyl) phenoxy-2-(2-bis(carboxymethyl)amino-5-(diazoacetyl)phenoxy) ethane], for which the “εmax, +Ca2+” value in data set [1] (+Ca2+, at λmax) was 20.2 10^-3, M^-1 cm^-1. Further, the “λmax, +Ca2+” value in data set [1] (+Ca2+, dominant peak at longest wavelength) is 320 nm. For the same compound, in data set [1] (free (zero Ca2+), at λmax), the “εmax, free” value is on record as 22.2 10^-3, M^-1 cm^-1. Also, the “shift of absorbance to shorter wavelengths on binding Ca2+” value in data set [1] (on binding Ca2+) was determined as 50 nm. The Kd was 0.073 µM in data set [2] (after photolysis, 0.1-0.15M ionic strength, 20-23° C., read-out: Kd (Ca2+), after photolysis) and 2.2 µM in data set [2] (before photolysis, 0.1-0.15M ionic strength, pH 7.0-7.4, 20-23° C., read-out: Kd (Ca2+), before photolysis). Besides, in data set [3], the “effect of UV photolysis of intracellular chelator on [Ca2+]i (in words)” value is reported as “dropped precipitously”. In addition, in data set [3] (after 1 s UV, cell stimulated with 50 nM [arg8]-vasopressin, loaded with diazo-2/AM), the “[Ca2+]i immediately after photolysis” value is given as “about 50 nM”.
